From patent US20200253959A1, “COMPOUNDS AND PHARMACEUTICAL COMPOSITIONS THEREOF FOR USE IN THE TREATMENT OF FIBROTIC DISEASES” (Galapagos NV, priority 2017, published 2020)
Values joined by “and” are separate entries in the source; they are usually repeats but may differ in a detail not shown here. Equal values may be shown once.

Columns and labels:
subjects with IPF [1] = test: Clinical study in IPF subjects: pulmonary function by spirometry (FVC); format: in vivo, human
Description: The study is a randomized, double-blind, parallel group, placebo-controlled, multicenter study to evaluate the test compound in subjects with IPF.
At baseline, after the subject's eligibility for the study has been confirmed, subjects are randomized in a 3:1 ratio test compound (600 mg q.d.) : matching placebo administered for 12 weeks.
Subjects receive 600 mg of test compound (3 capsules of 200 mg) or placebo q.d. for 12 weeks administered in the morning.
Pulmonary function will be assessed through spirometry both performed at the study center (at screening, baseline, and thereafter post dose at the time points indicated in the study schedule and according to sequence of study assessments) and at home (at baseline and thereafter post dose; on a daily basis in the morning). Specific instructions on how to perform the spirometry at home are provided in a separate spirometry user manual.
The following parameters will be measured as part of the spirometry assessment: • FEV1 (L) and percent predicted FEV1 • FVC (L) and percent predicted FVC • FEV1/FVC ratio • Forced expiratory flow (FEF) between 25 and 75% of exhaled volume (FEF25-75)

LPA 18:2 [2] = test: LPA 18:2 levels in blood samples of IPF subjects; format: in vivo, human; settings: for LPA 18:2 % reduction: IPF patients, plasma
Description: (§1) Blood samples of 14 mL will be collected predose by venipuncture (or indwelling catheter for pharmacokinetic sampling days) in the arm at the time points indicated in the study flow chart and according to sequence of study assessments.
From the blood samples, the LPA 18:2 levels are determined using laboratory techniques.

[3] = Test compound plasma levels and PK parameters in IPF patients (LC-MS/MS, non-compartmental analysis); format: in vivo, human; settings: for Compound I concentration: listed as Compound I
Description: The test compound plasma levels were determined by LC-MS/MS and PK parameters by non-compartmental analysis using Phoenix WinNonlin.

LPA 18:2 [4] = test: Human plasma assay for the reduction of LPA 18:2; format: biochemical
[5] = Compound plasma concentration in healthy volunteers (PK/PD correlation in plasma); format: in vivo, human; settings: listed as Compound I
Text: (§2) A first trial is a randomized, double-blind, placebo-controlled, single center study evaluating single ascending doses (SAD) and multiple ascending (MAD) doses of compound 1 in healthy male volunteers (see Van der Aar E M, 2016).

LPA C8:2 = test: Plasma LPA reduction in healthy volunteers (PK/PD correlation in plasma); format: in vivo, human
Text: as §2

surfactant protein A = test: Biomarker analysis surfactant protein A in blood of IPF subjects; format: in vivo, human; settings: following 12 weeks of treatment
Description: as §1
The following exploratory biomarkers are evaluated in blood samples: • KL-6/Muc1 • surfactant protein A and D • CCL18 • ATX • MMP1, MMP7 • markers of extracellular matrix (ECM) turnover (neoepitope assay)

subjects with IPF [6] = test: Functional respiratory imaging (FRI) from HRCT in IPF subjects; format: in vivo, human
Text: HRCT will be performed (post dose if applicable) at the time points indicated in the study chart (see 1.4 above) and according to sequence of study assessments. HRCT scans will be used to generate FRI measurements allowing for an evaluation of regional IPF disease manifestation and disease progression. In case the subject is on bronchodilators, he/she can use the bronchodilator after the spirometry but prior to HRCT for FRI parameters.
At each computed tomography (CT) assessment an inspiratory and an expiratory scan will be taken. During the baseline visit an additional scan of the upper airway will be taken. The inspiratory and an expiratory scan will expose the subject to a total radiation dose of approximately 4-5 mSv per visit, including the initial CT localizer radiograph (topogram scout). The upper airway scan will expose a subject to approximately 1 mSv. A radiation dose of approximately 2-2.5 mSv is equivalent to approximately 1 year of background radiation (based on the assumption of an average “effective dose” from natural background radiation is of 3.1 mSv per year in the US and 2.4 mSv per year in Europe. (USNRC, 2014; WNA, 2015)
All CT images will be imported into Mimics, a commercial, medical image processing software package (Materialise, Leuven, Belgium, Food and Drug Administration, K073468; CE certificate, BE 05/1191 CE01) for analysis. This software package converts the HRCT images into patient specific, 3-dimensional computer models of the lung lobes, the airway lumen and wall, and the vascular tree. The airway and vascular tree are evaluated at functional residual capacity (FRC) and total lung capacity (TLC) level and can be segmented down to bronchi/vessels with a diameter of around 1-2 mm. Beyond this point the HRCT resolution is insufficient to distinguish alveolar and intraluminal air, or blood vessel tissue and surrounding lung tissues. A typical airway model includes 5-10 generations, depending mainly on the disease state of the individual patient. Afterwards the airway lumen models will be processed further to obtain a model that is suitable for flow calculations.
The following FRI parameters based on low-dose inspiratory-expiratory multi-slice CT images and computational fluid dynamics flow simulations will be evaluated. • lobar volumes at FRC and TLC • airway volumes at FRC and TLC • airway resistance • internal lobar airflow distribution • low attenuation or emphysema score at TLC • blood vessel density or fibrosis score at TLC • airway wall thickness at TLC • air trapping at FRC • mass of deposited particles per defined airway section

CCc1nc2c(C)cc(N3CCN(CC(=O)N4CC(O)C4)CC3)cn2c1N(C)c1nc(-c2ccc(F)cc2)c(C#N)s1 [Compound 1]
FVC CFB (subjects with IPF [1]; 600 mg q.d., Week 4, IPF subjects): +116 mL | FVC CFB (subjects with IPF [1]; 600 mg q.d., Week 8, IPF subjects): +15 mL | FVC CFB (subjects with IPF [1]; 600 mg q.d., Week 12, IPF subjects, mean from baseline, listed as Cpd I): +8 mL | FVC CFB (subjects with IPF [1]; 600 mg q.d., Week 12, IPF subjects, mean from baseline, listed as compound according to Formula I): 8 mL | FVC CFB (subjects with IPF [1]; Follow up (2 weeks after last administration of 600 mg q.d.)): -55 mL | LPA18:2 percentage reduction (LPA 18:2 [2]; 600 mg q.d., Week 4, positive value = reduction): 52.48% | LPA18:2 percentage reduction (LPA 18:2 [2]; 600 mg q.d., Week 12, positive value = reduction): 67.48% | LPA18:2 percentage reduction (LPA 18:2 [2]; Follow up visit, negative value = increase in LPA levels): −34.36% | LPA 18:2 % reduction (LPA 18:2 [2]; Week 4 - 0 h post-dose (second line so labelled, r10)): 88% | LPA 18:2 % reduction (LPA 18:2 [2]; Week 4 - 0 h post-dose): 52% | LPA 18:2 % reduction (LPA 18:2 [2]; Week 12 - 0 h post-dose): 68% | LPA 18:2 levels after stopping the administration (in words) (LPA 18:2 [2]; after stopping administration): levels returning to or above baseline levels | LPA 18:2 levels on administration (in words) (LPA 18:2 [2]; during administration, 600 mg q.d.): stable decrease in LPA 18:2 levels | Compound I concentration ([3]; Week 4 - 0 h post-dose (second line so labelled, r10), plasma): 6557 nM and 3860 ng/mL | Compound I concentration ([3]; Week 4 - 0 h post-dose, plasma): 1020 nM and 604 ng/mL | Compound I concentration ([3]; Week 12 - 0 h post-dose, plasma): 1698 nM and 1000 ng/mL | AUC ([3]; human, plasma, oral, week 4, 600 mg q.d., read-out: mean area under the plasma concentration time curve for the dosing interval of 24 hours (AUC0-τ)): 55600 ng·h/mL | Cmax ([3]; human, plasma, oral, week 4, 600 mg q.d., read-out: median maximum observed plasma concentration (Cmax)): 6060 ng/mL | Tmax ([3]; human, plasma, oral, week 4, 600 mg q.d., read-out: median tmax): 4 h | trough plasma concentration (Cτ) ([3]; week 4, 600 mg q.d.): 604 ng/mL | IC50 in human plasma assay for the reduction of LPA 18:2 (LPA 18:2 [4]): 0.143 µg/mL | Compound I concentration ([5]; D 14 - 6 h post-dose): 6506 nM and 3830 ng/mL | Compound I concentration ([5]; D 14 - 24 h post-dose): 421 nM and 249 ng/mL | LPA C8:2 % reduction (LPA C8:2; D 14 - 6 h post-dose): 83% | LPA C8:2 % reduction (LPA C8:2; D 14 - 24 h post-dose): 66% | surfactant protein A in blood (in words) (surfactant protein A): statistically significant increase | Specific airway resistance (subjects with IPF [6]; Baseline, Compound 1 group): 0.11 kPa/sec | Specific airway volume (subjects with IPF [6]; Baseline, Compound 1 group): 3.92 mL/L | Specific airway resistance (subjects with IPF [6]; Week 12, 600 mg q.d.): 0.12 kPa/sec | Specific airway volume (subjects with IPF [6]; Week 12, 600 mg q.d.): 3.80 mL/L | airway resistance (in words) (subjects with IPF [6]; baseline vs Week 12): stabilization | airway volume (in words) (subjects with IPF [6]; baseline vs Week 12): stabilization
